Values after ≈ are worked out from the molar mass of the structure shown. Active and inactive are the calls of the source. No cut-off for these calls is given here.
Tests used:
A549 [1] = assay: Increase in Fas protein level in A549 cells at 40 ug/ml after 48 hrs relative to control; format: functional, Homo sapiens
A549 [2] = assay: Antiproliferative activity against human A549 cells after 48 hrs by MTT assay; format: functional, cell-based; conditions: A549, 48 h
A549 [3] = assay: Cell cycle arrest in A549 cells assessed as accumulation at G1 phase at 40 ug/ml after 48 hrs; format: functional, Homo sapiens
A549 [4] = assay: Cell cycle arrest in A549 cells assessed as accumulation at G2/M phase at 40 ug/ml after 48 hrs; format: functional, Homo sapiens
A549 [5] = assay: Effect on morphology in A549 cells assessed as formation of apoptotic bodies at 40 ug/ml after 48 hrs; format: functional, cell-based; conditions: Homo sapiens
A549 [6] = assay: Increase in P53 protein level in A549 cells at 40 ug/ml after 48 hrs relative to control; format: functional, Homo sapiens
A549 [7] = assay: Induction of apoptosis in A549 cells assessed as DNA fragmentation at 40 ug/ml after 48 hrs by acridine orange assay; format: functional, cell-based; conditions: Homo sapiens
A549 [8] = assay: Cell cycle arrest in A549 cells assessed as accumulation at S phase at 40 ug/ml after 48 hrs; format: functional, Homo sapiens

SMILES	Activity (A549 [1]) [%]	IC50 (A549 [2]) [µg/mL]	Activity (A549 [3]) [%]	Activity (A549 [4]) [%]	Activity (A549 [5])	Activity (A549 [6]) [%]	Activity (A549 [7])	Activity (A549 [8]) [%]
O=C1COC(COc2ccc([N+](=O)[O-])cc2)CN1c1ccccc1 (stereo not given)	40.97	16.6 (≈ 50.6 µM)	73.3	18.64	Active	33.73	Active	–
O=C1COC(COc2ccc([N+](=O)[O-])cc2)CN1c1ccc(Cl)cc1 (stereo not given)	21.53	38 (≈ 105 µM)	63.25	21.93	–	23.98	Active	14.82
COc1ccc(N2CC(COc3ccc(Cl)cc3)OCC2=O)cc1 (stereo not given)	23.45	22.9 (≈ 65.9 µM)	79.44	–	–	22.41	Active	10.99

Source: ChEMBL document CHEMBL1147941, “Novel morpholin-3-one derivatives induced apoptosis and elevated the level of P53 and Fas in A549 lung cancer cells” (Bioorg Med Chem, 2007)
